According to patent US20060025458A1, “Alkylammonium compounds as antifungal and antitrypanosomal agents” (University of Connecticut, priority 2004, published 2006):

Legend:
C. albicans strain BWP17 = assay: Growth inhibition of C. albicans in vitro; format: cell-based, Candida albicans; settings: read-out: IC50, C. albicans proliferation
Protocol: G15, E24 and C35 inhibited at higher concentrations (>10 μM).

[1] = system: choline transport in the wild-type strain of S. cerevisiae; assay: [methyl-3H]-choline uptake in wild-type S. cerevisiae; format: cell-based, Saccharomyces cerevisiae
Protocol: Uptake Assays: Yeast strains were grown in synthetic complete medium supplemented as required to maintain cell growth to an optical density of 0.55-0.65 at 600 nm. Cells were harvested by centrifugation at 3,200×g for 10 min at 4° C., washed twice in cold PBS and resuspended in nitrogen-free medium (SD without ammonium sulfate). […] After 3 min incubation at 30° C. with shaking, transport was immediately stopped by filtration through Whatman GF/C glass microfiber paper. The filters were washed three times with 5 ml ice-cold PBS, air dried, and analyzed in a scintillation counter. For time course uptake, 3-4×10^7 cells were incubated at 30° C. in 1 ml of nitrogen-free medium in the presence of 25 nM [^3H]-T16 (69 Ci/mmol) for different time periods (1, 2, 3, 4, 5, 7, 10 and 15 min) after which 5 ml of cold PBS was added to stop the reaction. Kinetic parameters were determined after 4 min of incubation at 30° C. in the presence of [^3H]-T16 at concentrations ranging from 25 nM to 75 μM (69 Ci - 23 mCi/mol). The samples were centrifuged at 4° C. for 10 min at 1,200×g, the supernatants were discarded and the cells were then resuspended in 5 ml of cold PBS. The reaction was terminated by filtering the cell suspension through GF/C membranes that were pretreated with 15 ml of 0.05% polyethyleneimine (PEI). The filters were washed twice with 5 ml of cold PBS, air dried, and analyzed in a scintillation counter. The cellular accumulation ratio (CAR) was calculated as previously described for T16 and G25 (Biagini, et al., 2003; Wengelnik, et al., 2002).

[2] = system: promastigote form of L. major; assay: Growth inhibition of Leishmania major promastigotes; format: cell-based; settings: read-out: IC50 of choline analogs in Leishmania major, WT
Protocol: For those drugs, IC50 values were determined.

[3] = system: de novo biosynthesis of PtdEtn from ethanolamine; assay: Incorporation of radiolabeled ethanolamine into PtdEtn in P. falciparum-infected erythrocytes; format: cell-based, Plasmodium falciparum; settings: concentrations up to 100 μM
Protocol: Labeling Studies and Phospholipid Analysis in P. falciparum: Nigerian strains of P. falciparum were asexually cultured in the presence of basic medium (RPMI 1640 supplemented with 25 mM Hepes, pH 7.4) and 10% AB^+ human serum (Trager and Jensen, 1976). Parasite synchronization was obtained with three successive 5% sorbitol treatments (Lambros and Vanderberg, 1979). Synchronized P. falciparum-infected erythrocytes (7-10% parasitemia, trophozoites) were pre-incubated for 1 hour at 37° C. at 4% hematocrit in 2 ml (final volume) basic medium in the absence or the presence of different concentrations of the compound G25. The appropriate radioactive precursor of lipid metabolism was added followed by further 3 h of incubation. Radioactive precursors were used as follows: 30 μM [methyl-^3H]-choline (334 mCi/mmol), 2 μM [^3H]-ethanolamine (2 Ci/mmol) and 10 μM [3-^14C]-serine (57 mCi/mmol). […] The silica gel of the lipid spots were scraped directly into scintillation vials containing 3 ml of liquid-scintillation fluid and counted in a Beckman LS 5000 spectrophotometer. The amount of labeled precursors incorporated into cellular lipids (nmol×10^7 cell^−1×h^−1) was computed on the basis of radioactivity incorporated into lipids and the specific activity of the precursors in the incubation medium. […]

[4] = system: S. cerevisiae wild type and knockouts of PtdCho biosynthesis genes; assay: Plate growth limiting dilution assay of yeast phospholipid mutants with G25; format: cell-based, Saccharomyces cerevisiae; settings: 5 μM G25, plate assay
Protocol: FIG. 9. Sensitivity to G25 of wild type and mutants affected in different steps of PtdCho biosynthesis. Plate growth limiting dilution assays were performed as described in Materials and Methods in the absence or the presence of 5 μM of G25. The strains and genes deleted in the strains used are described in “Material and Methods”.
Strains and Growth Conditions: Wild-type (BY4741: Mata his3Δ1 leu2Δ0 met15Δ0 ura3Δ0) and mutant (hnm1Δ, psd1Δ, cki1Δ, pem1Δ, ept1Δ, cpt1Δ, eki1Δ, psd2Δ, pct1Δ, ect1Δ, pem2Δ) S. cerevisiae strains used in this study were purchased from Research Genetics (Invitrogen, USA). These strains were grown on YPD (1% yeast extract, 2% dextrose and 2% peptone) or synthetic complete medium (SD, 1.7% yeast nitrogen base, 5% ammonium sulfate and 2% dextrose). The Nigerian strain of P. falciparum was propagated in human red blood cells at 4% hematocrit by the method of Trager and Jensen (1976). Plate growth assays were performed by growing wild-type and mutant yeast strains in YPD to mid-log phase. Cultures were serially diluted 1:10 starting with a density of 3×10^7 cells/ml. The growth of cells was monitored by spotting 3 μl of each dilution onto solid medium in the absence or presence of 5 μM of G25.
Sensitivity of mutants affected in phospholipid metabolism to choline analogs. […] However, the steps in the phospholipid biosynthesis pathways that are specifically targeted by these compounds are not yet known. To assess whether the mode of action of G25 is linked to disruption of phospholipid metabolism, yeast was used as a surrogate system to compare the sensitivity to G25 of the wild-type strain and eleven individual knockouts in the CDP-choline, CDP-ethanolamine and CDP-DAG pathways. […] No resistance was conferred by loss of the PtdEtn methyltransferases, Pem1 and Pem2, or the enzymes of the CDP-ethanolamine pathway. Furthermore, unlike psd1[…] strain, loss of the Golgi/vacuole PtdSer decarboxylase, Psd2, which synthesizes 5% of the PtdEtn pool only, had no effect on G25 sensitivity.

[5] = system: P. falciparum and P. cynomolgi; settings: very low doses; cited from earlier work
P. falciparum = settings: cited from earlier work

Structure (SMILES): C[N+]1(CCCCCCCCCCCCCCCC[N+]2(C)CCCC2)CCCC1.[Br-].[Br-] [G25, 1,16-hexadecamethylenebis[N-methylpyrrolidinium]dibromide]
- IC50 (C. albicans strain BWP17): ~5 µM
- inhibition of choline transport ([1]; 20-fold excess over [methyl-3H]-choline): 50%
- inhibition of choline transport ([1]; 100-fold excess over [methyl-3H]-choline): 84%
- IC50 [2]: 8.1 µM
- effect on incorporation of radiolabeled ethanolamine into PtdEtn [3]: no effect
- effect of loss of Psd2 on sensitivity [4]: no effect
- resistance conferred by loss of Cki1, Cpt1, Pct1 and Hnm1 (CDP-choline pathway) [4]: substantial resistance
- resistance conferred by loss of Pem1, Pem2 or CDP-ethanolamine pathway enzymes [4]: No resistance
- resistance of psd1 deletion strain [4]: highly resistant
- malaria infection in monkeys [5]: cleared malaria infection
- IC50 (P. falciparum; in vitro, literature, read-out: IC50, P. falciparum): 0.0012 µM
- IC90/IC50 ratios (P. falciparum; multidrug resistant laboratory and clinical isolates): less than 3
